Test results taken from ChEMBL document CHEMBL4390680, “In silico study of M18 aspartyl amino peptidase (M18AAP) of Plasmodium vivax as an antimalarial drug target” (Bioorg Med Chem, 2019).

Assay: Inhibition of Plasmodium vivax aminopeptidase-M18

| pIC50 | Compound |
| --- | --- |
| 5.24 | COc1ccc(CCN(C)c2ccnc3cc(Cl)ccc23)cc1OC |
| 5.102 | Oc1ccc(CCN2CCc3ccccc3C2)cc1O |
| 5.979 | COc1ccc(CNc2c3ccccc3nc3ccccc23)cc1OC |
| 5.61 | COc1ccc(CCNc2c3ccccc3nc3ccccc23)cc1OC |
| 5.658 | COc1ccc(CCCNc2c3ccccc3nc3ccccc23)cc1OC |
| 5.347 | COc1ccc(CCN(C)c2c3ccccc3nc3ccccc23)cc1OC |
| 5.699 | COc1ccc(C2CCN(c3ccnc4ccccc34)C2)cc1OC (stereo unspecified) |
| 5.522 | COc1cc(Br)c(CCNc2c3c(nc4ccccc24)CCCC3)cc1OC |
| 5.409 | Oc1ccc(CCNc2ccnc3ccccc23)cc1O |
| 5.443 | Oc1ccc(CCNc2c3c(nc4ccccc24)CCCC3)cc1O |
| 5.854 | CCOc1ccc2nccc(NCCc3ccc(OC)c(OC)c3)c2c1 |
| 5.347 | COc1ccc(CCNc2cncc3ccccc23)cc1OC |
| 6.031 | Oc1ccc(C2CCN(c3ccnc4ccccc34)C2)cc1O (stereo unspecified) |
| 6.221 | COc1cccc(CCNc2c3ccccc3nc3ccccc23)c1 |
| 5.569 | Oc1cccc(CCNc2ccnc3ccccc23)c1O |
| 6.208 | Oc1ccc(CCNc2ccnc3cc(Cl)ccc23)cc1O |

| pIC50 | Compound |
| --- | --- |
| 5.398 | Cc1c(OCc2ccccc2)c(=O)ccn1CCNc1c2ccccc2nc2ccccc12 |
| 5.377 | Oc1ccc(C2CCCN(c3ccnc4ccccc34)C2)cc1O (stereo unspecified) |
| 5.187 | Oc1ccc(CCNC2CCN(Cc3ccccc3)CC2)cc1O |
| 6.155 | Oc1ccc(CCNc2c3ccccc3nc3ccccc23)cc1 |
| 6.18 | COc1ccc(CCNc2ccnc3cc(Cl)ccc23)cc1OC |
| 5.432 | Oc1ccc(CCCNc2c3ccccc3nc3ccccc23)cc1O |
| 5.319 | CN(CCc1ccc(O)c(O)c1)c1ccnc2ccccc12 |
| 5.959 | COc1ccc(CCNc2c3ccccc3nc3ccccc23)cc1 |
| 6.522 | COc1cc(Br)c(CCNc2c3ccccc3nc3ccccc23)cc1OC |
| 5.328 | O=c1ccn(CCNc2c3ccccc3nc3ccccc23)cc1OCc1ccccc1 |
| 5.887 | Oc1ccc(C2CCN(c3ccnc4ccccc34)CC2)cc1O |
| 6.347 | COc1cc(Br)c(CCNc2ccnc3ccccc23)cc1OC |
| 5.328 | Cc1cccc2c(NCCc3ccc(O)c(O)c3)ccnc12 |
| 5.161 | COc1ccc(CCNC2CCN(Cc3ccccc3)CC2)cc1OC |
| 6.301 | NCCNc1c2ccccc2nc2ccccc12 |
